Measured values as given in patent publication US8557860B2, “Cyclopentane heptan(ENE)OIC acid, 2-heteroarylalkenyl derivatives as therapeutic agents” (Allergan, Inc., priority 2004, dated 2013).

Legend:
Format in all cases: cell-based
[1] = target: T1, hTP (Homo sapiens, UniProt P21731); test: FLIPR calcium signal study, hTP; conditions: HEK-293(EBNA) cells, recombinant human receptor, read-out: FUNCTIONAL DATA (EC50 nm) HTP
T1 construct: expressed in transfected cells; host or cells: HEK-293(EBNA)
T1 sequence (P21731 1-343): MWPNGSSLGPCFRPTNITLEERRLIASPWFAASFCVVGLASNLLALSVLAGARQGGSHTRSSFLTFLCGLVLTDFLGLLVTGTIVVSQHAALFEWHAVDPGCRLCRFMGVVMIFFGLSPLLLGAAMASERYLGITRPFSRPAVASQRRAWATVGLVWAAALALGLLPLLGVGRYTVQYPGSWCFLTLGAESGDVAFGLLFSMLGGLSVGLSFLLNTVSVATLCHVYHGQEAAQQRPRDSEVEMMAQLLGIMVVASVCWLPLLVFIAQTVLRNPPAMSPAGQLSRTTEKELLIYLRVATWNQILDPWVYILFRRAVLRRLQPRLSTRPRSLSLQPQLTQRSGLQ
Experimental: (§1) HEK-293(EBNA) cells, stably expressing one type or subtype of recombinant human prostaglandin receptors (prostaglandin receptors expressed: hDP/Gqs5; hEP1; hEP2/Gqs5; hEP3A/Gqi5; hEP4/Gqs5; hFP; hIP; hTP), were cultured in 100 mm culture dishes in high-glucose DMEM medium containing 10% fetal bovine serum, 2 mM 1-glutamine, 250 μg/ml geneticin (G418) and 200 μg/ml hygromycin B as selection markers, and 100 units/ml penicillin G, 100 μg/ml streptomycin and 0.25 μg/ml amphotericin B.
(§2) Cells were seeded at a density of 5×10^4 cells per well in Biocoat® Poly-D-lysine-coated black-wall, clear-bottom 96-well plates (Becton-Dickinson) and allowed to attach overnight in an incubator at 37° C. Cells were then washed two times with HBSS-HEPES buffer (Hanks Balanced Salt Solution without bicarbonate and phenol red, 20 mM HEPES, pH 7.4) using a Denley Cellwash plate washer (Labsystems). After 45 minutes of dye-loading in the dark, using the calcium-sensitive dye Fluo-4 AM at a final concentration of 2 μM, plates were washed four times with HBSS-HEPES buffer to remove excess dye leaving 100 μl in each well. Plates were re-equilibrated to 37° C. for a few minutes.
(§3) Cells were excited with an Argon laser at 488 nm, and emission was measured through a 510-570 nm bandwidth emission filter (FLIPR™, Molecular Devices, Sunnyvale, Calif.). Drug solution was added in a 50 μl volume to each well to give the desired final concentration. The peak increase in fluorescence intensity was recorded for each well. On each plate, four wells each served as negative (HBSS-HEPES buffer) and positive controls (standard agonists: BW245C (hDP); PGE2 (hEP1; hEP2/Gqs5; hEP3A/Gqi5; hEP4/Gqs5); PGF2α (hFP); carbacyclin (hIP); U-46619 (hTP), depending on receptor). The peak fluorescence change in each drug-containing well was then expressed relative to the controls.
(§4) Compounds were tested in a high-throughput (HTS) or concentration-response (CoRe) format. […]

[2] = target: T2, hEP3A/Gqi5 (Homo sapiens, UniProt P43115); test: FLIPR calcium signal study, hEP3A/Gqi5; conditions: HEK-293(EBNA) cells, recombinant human receptor, read-out: FUNCTIONAL DATA (EC50 nm) HEP3A
T2 construct: expressed in transfected cells; host or cells: HEK-293(EBNA)
T2 sequence (P43115 1-390): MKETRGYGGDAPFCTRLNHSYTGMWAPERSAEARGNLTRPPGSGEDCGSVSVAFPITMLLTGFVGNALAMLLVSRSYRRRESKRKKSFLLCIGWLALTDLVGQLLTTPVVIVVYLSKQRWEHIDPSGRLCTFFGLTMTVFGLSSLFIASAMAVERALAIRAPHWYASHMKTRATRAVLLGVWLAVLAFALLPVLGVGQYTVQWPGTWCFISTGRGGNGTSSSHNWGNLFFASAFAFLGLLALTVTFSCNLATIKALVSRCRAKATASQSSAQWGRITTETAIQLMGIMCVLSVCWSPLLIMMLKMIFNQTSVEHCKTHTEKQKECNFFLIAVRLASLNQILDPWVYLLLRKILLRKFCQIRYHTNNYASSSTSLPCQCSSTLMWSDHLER
Experimental: as §1, §2, §3, §4

[3] = target: T3, hFP (Homo sapiens, UniProt P43088); test: FLIPR calcium signal study, hFP; conditions: HEK-293(EBNA) cells, recombinant human receptor, read-out: FUNCTIONAL DATA (EC50 nm) HFP
T3 construct: expressed in transfected cells; host or cells: HEK-293(EBNA)
Experimental: as §1
(§5) Cells were seeded at a density of 5×10^4 cells per well in Biocoat® Poly-D-lysine-coated black-wall, clear-bottom 96-well plates (Becton-Dickinson) and allowed to attach overnight in an incubator at 37° C. Cells were then washed two times with HBSS-HEPES buffer (Hanks Balanced Salt Solution without bicarbonate and phenol red, 20 mM HEPES, pH 7.4) using a Denley Cellwash plate washer (Labsystems). […]
(§6) Cells were excited with an Argon laser at 488 nm, and emission was measured through a 510-570 nm bandwidth emission filter (FLIPR™, Molecular Devices, Sunnyvale, Calif.). […] The peak increase in fluorescence intensity was recorded for each well. […] The peak fluorescence change in each drug-containing well was then expressed relative to the controls. […]

[4] = target: T4, hEP4/Gqs5 (Homo sapiens, UniProt P35408); test: FLIPR calcium signal study, hEP4/Gqs5; conditions: HEK-293(EBNA) cells, recombinant human receptor, read-out: FUNCTIONAL DATA (EC50 nm) HEP4
T4 construct: expressed in transfected cells; host or cells: HEK-293(EBNA)
Experimental: as §1, §5, §6

[5] = target: T5, hEP1 (Homo sapiens, UniProt P34995); test: FLIPR calcium signal study, hEP1; conditions: HEK-293(EBNA) cells, recombinant human receptor, read-out: FUNCTIONAL DATA (EC50 nm) HEP1
T5 construct: expressed in transfected cells; host or cells: HEK-293(EBNA)
T5 sequence (P34995 1-402): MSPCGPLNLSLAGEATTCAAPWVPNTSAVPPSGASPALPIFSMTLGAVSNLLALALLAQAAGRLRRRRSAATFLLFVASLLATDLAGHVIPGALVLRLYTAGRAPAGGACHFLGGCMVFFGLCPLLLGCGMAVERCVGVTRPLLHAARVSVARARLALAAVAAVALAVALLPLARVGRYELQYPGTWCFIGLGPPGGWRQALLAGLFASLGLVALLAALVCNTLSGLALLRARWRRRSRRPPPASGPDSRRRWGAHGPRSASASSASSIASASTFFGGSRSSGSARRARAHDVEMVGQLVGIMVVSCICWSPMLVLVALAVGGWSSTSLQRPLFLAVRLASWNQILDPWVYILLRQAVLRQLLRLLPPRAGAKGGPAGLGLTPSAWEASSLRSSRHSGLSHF
Experimental: as §1, §5, §6

T4 sequence (P35408 whole entry): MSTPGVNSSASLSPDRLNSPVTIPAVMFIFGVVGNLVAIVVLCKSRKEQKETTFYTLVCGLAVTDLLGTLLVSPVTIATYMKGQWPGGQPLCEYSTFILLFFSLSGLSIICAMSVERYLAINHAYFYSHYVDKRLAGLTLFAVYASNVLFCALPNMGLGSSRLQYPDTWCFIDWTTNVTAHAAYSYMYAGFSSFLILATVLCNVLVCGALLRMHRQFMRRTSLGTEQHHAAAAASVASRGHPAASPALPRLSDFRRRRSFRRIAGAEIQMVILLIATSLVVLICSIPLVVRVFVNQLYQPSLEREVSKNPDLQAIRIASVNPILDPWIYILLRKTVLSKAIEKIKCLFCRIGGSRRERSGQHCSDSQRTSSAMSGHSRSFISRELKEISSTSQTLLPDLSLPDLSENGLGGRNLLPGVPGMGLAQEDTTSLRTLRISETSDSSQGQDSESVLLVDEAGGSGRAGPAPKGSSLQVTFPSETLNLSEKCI
T3 sequence (P43088 whole entry): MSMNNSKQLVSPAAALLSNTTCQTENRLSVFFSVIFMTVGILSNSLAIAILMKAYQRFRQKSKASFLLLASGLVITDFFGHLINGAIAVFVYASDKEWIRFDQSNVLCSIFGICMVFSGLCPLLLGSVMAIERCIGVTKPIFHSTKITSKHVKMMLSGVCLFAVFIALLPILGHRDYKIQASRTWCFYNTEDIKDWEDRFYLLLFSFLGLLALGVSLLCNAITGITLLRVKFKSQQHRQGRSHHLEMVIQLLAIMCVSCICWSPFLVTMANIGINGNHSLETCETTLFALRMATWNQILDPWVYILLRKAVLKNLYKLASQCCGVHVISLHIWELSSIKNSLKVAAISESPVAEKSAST

| EC50 [1] [µM] | EC50 [2] [µM] | EC50 [3] [µM] | EC50 [4] [µM] | EC50 [5] [µM] | Structure (SMILES) |
| --- | --- | --- | --- | --- | --- |
| 1.87 | > 100 | 2.07 |  |  | COC(=O)CCC/C=C\C[C@H]1C(O)CC[C@@H]1/C=C/[C@@H](O)CCc1cc(Br)c(C)s1 (single isomer, unassigned) |
| > 100 | > 100 | > 100 | 0.832 |  | Cc1sc(CC[C@H](O)/C=C/[C@H]2CCC(O)[C@@H]2C/C=C\CCCC(=O)O)cc1Br (single isomer, unassigned) [drawing 40] |
| 0.096 | 0.793 |  | > 100 | > 100 | Cc1sc(CC[C@H](O)/C=C/[C@H]2CCC(O)[C@@H]2C/C=C\CCCC(=O)O)cc1Br (single isomer, unassigned) [drawing 39] |
